The target in assay [1] is Induced myeloid leukemia cell differentiation protein Mcl-1 (Homo sapiens, UniProt Q07820). In words: Inhibition of MCL-1 (unknown origin) by fluorescence polarization competition assay. A general note: Fluorescence polarisation rises when a labelled molecule tumbles more slowly, as on binding a larger partner.
Assay [2] has as its target Apoptosis regulator Bcl-2 (Homo sapiens, UniProt P10415). Nature of the assay: Inhibition of BCL-2 (unknown origin) by fluorescence polarization competition assay.
In assay [3] the target is Bcl-2-like protein 1 (Homo sapiens, UniProt Q07817). In words: Inhibition of BCL-xL (unknown origin) by fluorescence polarization competition assay.

Usually Ki stands for a dissociation constant, usually derived from enzyme kinetics or from competition with a known ligand. Low values mean tighter binding, high ones weaker binding.

Sequence of Induced myeloid leukemia cell differentiation protein Mcl-1 (Q07820 whole entry): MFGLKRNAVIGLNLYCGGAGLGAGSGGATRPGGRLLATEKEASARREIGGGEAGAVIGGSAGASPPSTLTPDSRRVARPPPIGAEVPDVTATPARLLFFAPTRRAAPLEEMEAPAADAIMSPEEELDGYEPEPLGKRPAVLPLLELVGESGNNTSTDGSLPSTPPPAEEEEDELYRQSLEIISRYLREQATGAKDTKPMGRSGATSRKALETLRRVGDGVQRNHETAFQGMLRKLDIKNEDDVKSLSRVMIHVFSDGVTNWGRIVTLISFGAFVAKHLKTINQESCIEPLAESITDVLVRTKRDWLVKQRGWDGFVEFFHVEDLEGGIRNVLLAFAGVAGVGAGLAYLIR
Sequence of Bcl-2-like protein 1 (Q07817 whole entry): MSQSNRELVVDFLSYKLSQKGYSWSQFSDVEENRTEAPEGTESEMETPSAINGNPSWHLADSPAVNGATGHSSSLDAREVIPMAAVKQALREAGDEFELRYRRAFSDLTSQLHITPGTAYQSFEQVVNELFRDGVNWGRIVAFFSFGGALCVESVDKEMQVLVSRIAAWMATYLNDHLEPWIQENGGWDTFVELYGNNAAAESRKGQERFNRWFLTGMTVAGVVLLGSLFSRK
Sequence of Apoptosis regulator Bcl-2 (P10415 whole entry): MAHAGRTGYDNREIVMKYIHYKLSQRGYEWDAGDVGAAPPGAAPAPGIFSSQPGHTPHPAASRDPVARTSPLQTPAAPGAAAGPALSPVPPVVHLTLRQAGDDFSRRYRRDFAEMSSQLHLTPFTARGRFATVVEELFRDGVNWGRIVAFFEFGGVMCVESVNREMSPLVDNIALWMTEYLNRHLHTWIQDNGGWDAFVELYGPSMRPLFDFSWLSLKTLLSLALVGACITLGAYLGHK

`Cc1cc(Oc2ccc(Cn3nc4ccc(Cl)cc4c3C(=O)NS(=O)(=O)c3ccc(NCc4ccco4)c([N+](=O)[O-])c3)cc2)cc(C)c1Cl`: the inhibition constant Ki in assay [1] is 1.3 µM; in assay [2], 0.57 µM; in assay [3] it was > 10 µM.
For `Cc1cc(Oc2ccc(Cn3nc4ccc(Cl)cc4c3C(=O)NS(=O)(=O)c3ccc(NCc4ccn(C)n4)c([N+](=O)[O-])c3)cc2)cc(C)c1Cl` the same measures were 1.57 µM, 0.6 µM and 3.45 µM.
The like results for `Cc1cc(Oc2ccc(Cn3nc4ccc(Cl)cc4c3C(=O)NS(=O)(=O)c3ccc(NCc4cccnc4)c([N+](=O)[O-])c3)cc2)cc(C)c1Cl` were, in that order, 1.12 µM, 1.18 µM and 4.42 µM.
The like results for `Cc1cc(Oc2ccc(Cn3nc4ccc(Cl)cc4c3C(=O)NS(=O)(=O)c3ccc([N+](=O)[O-])c(NCc4cccnc4)c3)cc2)cc(C)c1Cl` were, in that order, 1 µM, 1.22 µM and > 10 µM.
With `Cc1cc(Oc2ccc(Cn3nc4ccc(Cl)cc4c3C(=O)NS(=O)(=O)c3ccc(NCCc4ccco4)c([N+](=O)[O-])c3)cc2)cc(C)c1Cl`, the figures for the Ki in assay [1], in assay [2] and in assay [3] were 1.28 µM, 0.62 µM and 3.4 µM, respectively.
Turning to `Cc1cc(Oc2ccc(Cn3nc4ccc(Cl)cc4c3C(=O)NS(=O)(=O)c3ccc([N+](=O)[O-])c(NCCc4ccncc4)c3)cc2)cc(C)c1Cl`, the Ki stood at 1.42 µM in assay [1] and 0.77 µM in assay [2].
Take `Cc1cc(Oc2ccc(Cn3nc4ccc(Cl)cc4c3C(=O)NS(=O)(=O)c3ccc(NCCc4cccnc4)c([N+](=O)[O-])c3)cc2)cc(C)c1Cl`: the Ki in assay [1] was 1.46 µM; in assay [2] it was 0.46 µM; in assay [3], > 10 µM.
For `Cc1cc(Oc2ccc(Cn3nc4ccc(Cl)cc4c3C(=O)NS(=O)(=O)c3ccc(NCCc4ccncc4)c([N+](=O)[O-])c3)cc2)cc(C)c1Cl` the same measures were 1.77 µM, 0.66 µM and > 10 µM.
In the case of `Cc1cc(OCCCn2nc3ccc(Cl)cc3c2C(=O)O)cc(C)c1Cl`, the Ki in assay [1] is > 10 µM.
For the compound `Cc1cc(Oc2ccc(Cn3nc4ccc(Cl)cc4c3C(=O)NS(=O)(=O)c3ccc(Cl)cc3)cc2)cc(C)c1Cl`, the Ki in assay [1] was 1.2 µM; in assay [2], 0.51 µM; in assay [3] it was > 10 µM.
Regarding `Cc1cc(OCCn2nc3ccc(Cl)cc3c2C(=O)O)cc(C)c1Cl`, in assay [1], the Ki is > 10 µM.
Take `Cc1cc(Oc2ccc(Cn3nc4ccc(Cl)cc4c3C(=O)NS(=O)(=O)c3ccc([N+](=O)[O-])c(NCc4ccco4)c3)cc2)cc(C)c1Cl`: the Ki in assay [1] is 1.68 µM; in assay [2], 0.96 µM; in assay [3] it was > 10 µM.
The like results for `Cc1cc(Oc2ccc(Cn3nc4ccc(Cl)cc4c3C(=O)NS(=O)(=O)c3ccc([N+](=O)[O-])c(NCc4ccncc4)c3)cc2)cc(C)c1Cl` were, in that order, 1.36 µM, 0.71 µM and > 10 µM.
Regarding `Cc1cc(Oc2ccc(Cn3nc4ccc(Cl)cc4c3C(=O)NS(=O)(=O)c3ccc([N+](=O)[O-])c(NCc4ccn(C)n4)c3)cc2)cc(C)c1Cl`, the Ki is 1.95 µM in assay [1], 0.71 µM in assay [2] and 7.41 µM in assay [3].
`Cc1cc(OCCCn2c(C(=O)O)nc3ccccc32)cc(C)c1Cl`: in assay [1], the Ki was > 10 µM.
For `Cc1cc(Oc2ccc(Cn3nc4ccc(Cl)cc4c3C(=O)NS(=O)(=O)c3ccc([N+](=O)[O-])c(NCCc4cccnc4)c3)cc2)cc(C)c1Cl`, the values for the Ki in assay [1], in assay [2] and in assay [3] were 1.46 µM, 0.46 µM and > 10 µM, respectively.
`Cc1cc(Oc2ccc(Cn3nc(C(=O)O)c4cc(Cl)ccc43)cc2)cc(C)c1Cl` registered a Ki in assay [1] of 2.28 µM.
As for `Cc1cc(Oc2ccc(Cn3nc4ccc(Cl)cc4c3C(=O)NS(=O)(=O)c3ccc([N+](=O)[O-])c(N4CCOCC4)c3)cc2)cc(C)c1Cl`, the Ki came out at 2.3 µM in assay [1], 0.9 µM in assay [2] and 6.66 µM in assay [3].
Turning to `Cc1cc(Oc2ccc(Cn3nc4ccc(Cl)cc4c3C(=O)NS(=O)(=O)c3ccc(NCCN4CCOCC4)c([N+](=O)[O-])c3)cc2)cc(C)c1Cl`, the Ki amounted to 1.61 µM in assay [1] and 0.42 µM in assay [2].
For `Cc1cc(Oc2ccc(Cn3nc4ccc(Cl)cc4c3C(=O)NS(=O)(=O)c3ccc(NCc4ccncc4)c([N+](=O)[O-])c3)cc2)cc(C)c1Cl`, the Ki in assay [1] was 1.65 µM; in assay [2] it was 1.52 µM; in assay [3] it was > 10 µM.
The like results for `Cc1cc(Oc2ccc(Cn3nc4ccc(Cl)cc4c3C(=O)NS(=O)(=O)c3ccc(N4CCOCC4)c([N+](=O)[O-])c3)cc2)cc(C)c1Cl` were, in that order, 1.32 µM, 0.53 µM and 7.99 µM.
As for `Cc1cc(Oc2ccc(Cn3nc4ccc(Cl)cc4c3C(=O)NS(=O)(=O)c3ccc([N+](=O)[O-])c(NCCc4ccco4)c3)cc2)cc(C)c1Cl`, the Ki in assay [1] is 2.16 µM; in assay [2], 0.84 µM; in assay [3], > 10 µM.

For the origin of these results see ChEMBL document CHEMBL5104175, “Scaffold hopping from indoles to indazoles yields dual MCL-1/BCL-2 inhibitors from MCL-1 selective leads” (RSC Med Chem, 2022).
